{"source": "paper PMC11762167", "about": "“G Protein-Coupled Receptor 17 Inhibits Glucagon-like Peptide-1 Secretion via a Gi/o-Dependent Mechanism in Enteroendocrine Cells” (Biomolecules, 2024)", "key": {"[1]": {"molecular_target": "T1, hGPR17L (Homo sapiens, UniProt Q13304)", "T1 sequence (Q13304 whole entry)": "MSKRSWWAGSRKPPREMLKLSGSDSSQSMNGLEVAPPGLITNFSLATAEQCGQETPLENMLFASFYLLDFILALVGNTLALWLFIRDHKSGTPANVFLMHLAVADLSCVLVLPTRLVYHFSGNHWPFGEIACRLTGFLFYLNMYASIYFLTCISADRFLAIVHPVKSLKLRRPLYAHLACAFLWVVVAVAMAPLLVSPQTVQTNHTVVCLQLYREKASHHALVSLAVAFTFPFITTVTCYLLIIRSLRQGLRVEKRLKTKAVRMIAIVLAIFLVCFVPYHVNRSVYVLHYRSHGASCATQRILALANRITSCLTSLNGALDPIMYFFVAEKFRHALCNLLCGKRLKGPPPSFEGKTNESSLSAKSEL", "experiment": "Endpoint cAMP (HTRF) in GLUTag cells expressing hGPR17L", "format": "cell-based", "design": "host or cells: GLUTag cells (murine enteroendocrine line), adenoviral transduction; Mean Diff. of cAMP, MDL29,951 vs FSK alone (Tukey): unit not given here", "conditions": "for Predicted (LS) mean diff.: Fig 2B, Forskolin; for Mean Diff. of cAMP, MDL29,951 vs FSK alone (Tukey): hGPR17L", "procedure": "GLUTag cells were maintained in Dulbecco’s Modified Eagle Medium (DMEM) supplemented with 10% fetal bovine serum and 1% penicillin–streptomycin in a humidified incubator at 37 °C and 5% CO2. For adenovirus transduction, GLUTag cells were seeded into poly-D-lysine coated 96-well plates or 4-chamber slides. The next day, cells were transduced with adenoviruses (100–1250 viral particles per cell at time of seeding) as indicated. After 24–30 h, adenovirus-containing media was changed to serum-free growth media for overnight serum starvation. The following day, GLUTag cells were used for cAMP or calcium signaling assays, GLP-1 secretion assays, or immunostaining and imaging.\nEndpoint cAMP measurements were conducted as follows. GLUTag cells were seeded into poly-D-lysine-coated 96-well plates and transduced with adenovirus as specified above and then tested for cAMP signaling. Medium was removed and cells were washed with cAMP stimulation buffer (Hanks’ balanced salt solution (HBSS), 20 mM HEPES, pH 7.4) and then incubated in cAMP stimulation buffer for 30 min at 37 °C and 5% CO2. Cells were then treated for 30 min with agonist and forskolin in the presence of 500 µM IBMX at 37 °C and 5% CO2. Stimulation buffer was then decanted, and cAMP lysis buffer (50 mM HEPES, 10 mM CaCl2, 0.35% Triton X-100, and 500 µM IBMX) was added and shaken at 700 rpm for 1 h. Lysate was transferred to a 384-well plate, and the cAMP levels were quantified using the Cisbio HTRF cAMP (Gi kit; Revvity, Waltham, MA, USA) according to the manufacturer’s protocol."}, "[2]": {"molecular_target": "T1, hGPR17L", "experiment": "Membrane β-arrestin recruitment in HEK293 cells transfected with hGPR17L", "format": "cell-based", "procedure": "Membrane β-arrestin recruitment measurements were conducted using a luminescent membrane β-arrestin recruitment reporter assay. HEK293 cells were seeded into white, opaque, poly-D-lysine-coated 96-well plates and transiently transfected using Lipofectamine 3000 (Thermo Fisher Scientific, Waltham, MA, USA) according to the manufacturer’s protocol on the following day. At 48 h post-transfection, cells were washed twice with assay buffer (HBSS, 20 mM HEPES, pH 7.4) and allowed to equilibrate to room temperature for 15 min in assay buffer. Cells were then loaded with coelenterazine h (Nanolight Technology, Prolume Ltd., Lakeside, AZ, USA; 5 µM final concentration) for 5 min in the dark. Luminescence was read using a SpectraMax iD3 (Molecular Devices) with 1 s integration time. Baseline luminescence was read every 2 min for 6 min. Agonist was added and then luminescence was read every 2 min for 30 min."}}}
{"smiles": "O=C(O)CCc1c(C(=O)O)[nH]c2cc(Cl)cc(Cl)c12", "note": "[MDL29,951]", "values": [{"measurement": "Predicted (LS) mean diff.", "setting": "[1]; log [MDL29,951] (M) -7.0 vs. Vehicle, +Vehicle", "result": -27.4}, {"measurement": "Predicted (LS) mean diff.", "setting": "[1]; log [MDL29,951] (M) -7.6 vs. Vehicle, +100 nM YM-254890", "result": -16.56}, {"measurement": "Predicted (LS) mean diff.", "setting": "[1]; log [MDL29,951] (M) -7.6 vs. Vehicle, +100 ng/mL PTX", "result": -4.54}, {"measurement": "Predicted (LS) mean diff.", "setting": "[1]; log [MDL29,951] (M) -7.6 vs. Vehicle, +Vehicle", "result": -8.48}, {"measurement": "Predicted (LS) mean diff.", "setting": "[1]; log [MDL29,951] (M) -8.2 vs. Vehicle, +100 nM YM-254890", "result": -9.253}, {"measurement": "Predicted (LS) mean diff.", "setting": "[1]; log [MDL29,951] (M) -8.2 vs. Vehicle, +100 ng/mL PTX", "result": 0.26}, {"measurement": "Predicted (LS) mean diff.", "setting": "[1]; log [MDL29,951] (M) -8.2 vs. Vehicle, +Vehicle", "result": 3.753}, {"measurement": "Predicted (LS) mean diff.", "setting": "[1]; log [MDL29,951] (M) -8.8 vs. Vehicle, +100 nM YM-254890", "result": -3.55}, {"measurement": "Predicted (LS) mean diff.", "setting": "[1]; log [MDL29,951] (M) -8.8 vs. Vehicle, +100 ng/mL PTX", "result": -5.335}, {"measurement": "Predicted (LS) mean diff.", "setting": "[1]; log [MDL29,951] (M) -8.8 vs. Vehicle, +Vehicle", "result": 6.603}, {"measurement": "Predicted (LS) mean diff.", "setting": "[1]; log [MDL29,951] (M) -9.4 vs. Vehicle, +100 nM YM-254890", "result": 1.64}, {"measurement": "Predicted (LS) mean diff.", "setting": "[1]; log [MDL29,951] (M) -9.4 vs. Vehicle, +100 ng/mL PTX", "result": 2.945}, {"measurement": "Predicted (LS) mean diff.", "setting": "[1]; log [MDL29,951] (M) -9.4 vs. Vehicle, +Vehicle", "result": 8.423}, {"measurement": "maximum inhibition of forskolin-stimulated cAMP", "setting": "[1]; at 390 nM MDL29,951, 10 µM forskolin", "result": "37 ± 5.1", "unit": "%"}, {"measurement": "Mean Diff. of cAMP, MDL29,951 vs FSK alone (Tukey)", "setting": "[1]; log [MDL29,951] (M) -4.0", "result": -0.306}, {"measurement": "Mean Diff. of cAMP, MDL29,951 vs FSK alone (Tukey)", "setting": "[1]; log [MDL29,951] (M) -4.6", "result": -0.593}, {"measurement": "Mean Diff. of cAMP, MDL29,951 vs FSK alone (Tukey)", "setting": "[1]; log [MDL29,951] (M) -5.2", "result": -1.138}, {"measurement": "Mean Diff. of cAMP, MDL29,951 vs FSK alone (Tukey)", "setting": "[1]; log [MDL29,951] (M) -5.8", "result": -1.598}, {"measurement": "Mean Diff. of cAMP, MDL29,951 vs FSK alone (Tukey)", "setting": "[1]; log [MDL29,951] (M) -6.4", "result": -1.654}, {"measurement": "Mean Diff. of cAMP, MDL29,951 vs FSK alone (Tukey)", "setting": "[1]; log [MDL29,951] (M) -7.0", "result": -1.376}, {"measurement": "Mean Diff. of cAMP, MDL29,951 vs FSK alone (Tukey)", "setting": "[1]; log [MDL29,951] (M) -7.6", "result": -0.7263}, {"measurement": "Mean Diff. of cAMP, MDL29,951 vs FSK alone (Tukey)", "setting": "[1]; log [MDL29,951] (M) -8.2", "result": -0.237}, {"measurement": "Mean Diff. of cAMP, MDL29,951 vs FSK alone (Tukey)", "setting": "[1]; log [MDL29,951] (M) -8.8", "result": -0.04325}, {"measurement": "Mean Diff. of cAMP, MDL29,951 vs FSK alone (Tukey)", "setting": "[1]; log [MDL29,951] (M) -9.4", "result": -0.0985}, {"measurement": "Mean Diff. (Tukey's multiple comparisons test), cAMP, Row 10 vs. Row 11", "setting": "[1]; hGPR17L-WT (1250), log [MDL29,951] (M) -4.0 vs. Vehicle, Forskolin stimulation, Figure 4B", "result": -9.193}, {"measurement": "Mean Diff. (Tukey's multiple comparisons test), cAMP, Row 9 vs. Row 11", "setting": "[1]; hGPR17L-WT (1250), log [MDL29,951] (M) -4.6 vs. Vehicle, Forskolin stimulation, Figure 4B", "result": -17.14}, {"measurement": "Mean Diff. (Tukey's multiple comparisons test), cAMP, Row 8 vs. Row 11", "setting": "[1]; hGPR17L-WT (1250), log [MDL29,951] (M) -5.2 vs. Vehicle, Forskolin stimulation, Figure 4B", "result": -27.93}, {"measurement": "Mean Diff. (Tukey's multiple comparisons test), cAMP, Row 7 vs. Row 11", "setting": "[1]; hGPR17L-WT (1250), log [MDL29,951] (M) -5.8 vs. Vehicle, Forskolin stimulation, Figure 4B", "result": -39.19}, {"measurement": "Mean Diff. (Tukey's multiple comparisons test), cAMP, Row 6 vs. Row 11", "setting": "[1]; hGPR17L-WT (1250), log [MDL29,951] (M) -6.4 vs. Vehicle, Forskolin stimulation, Figure 4B", "result": -41.54}, {"measurement": "Mean Diff. (Tukey's multiple comparisons test), cAMP, Row 5 vs. Row 11", "setting": "[1]; hGPR17L-WT (1250), log [MDL29,951] (M) -7.0 vs. Vehicle, Forskolin stimulation, Figure 4B", "result": -35.32}, {"measurement": "Mean Diff. (Tukey's multiple comparisons test), cAMP, Row 4 vs. Row 11", "setting": "[1]; hGPR17L-WT (1250), log [MDL29,951] (M) -7.6 vs. Vehicle, Forskolin stimulation, Figure 4B", "result": -21.64}, {"measurement": "Mean Diff. (Tukey's multiple comparisons test), cAMP, Row 3 vs. Row 11", "setting": "[1]; hGPR17L-WT (1250), log [MDL29,951] (M) -8.2 vs. Vehicle, Forskolin stimulation, Figure 4B", "result": -11.12}, {"measurement": "Mean Diff. (Tukey's multiple comparisons test), cAMP, Row 2 vs. Row 11", "setting": "[1]; hGPR17L-WT (1250), log [MDL29,951] (M) -8.8 vs. Vehicle, Forskolin stimulation, Figure 4B", "result": -5.06}, {"measurement": "Mean Diff. (Tukey's multiple comparisons test), cAMP, Row 1 vs. Row 11", "setting": "[1]; hGPR17L-WT (1250), log [MDL29,951] (M) -9.4 vs. Vehicle, Forskolin stimulation, Figure 4B", "result": -7.193}, {"measurement": "β-arrestin Emax (Peak ΔRLU/RLU)", "setting": "[2]", "result": "0.50±0.03"}, {"measurement": "β-arrestin Potency (pEC50)", "setting": "[2]", "result": "6.72±0.09"}, {"measurement": "EC50", "setting": "[2]; read-out: β-arrestin Potency EC50", "result": 190, "unit": "nM"}]}
